Data as given in patent publication US10017546B2 (KOREA ADVANCED INSTITUTE OF SCIENCE AND TECHNOLOGY, priority 2015, dated 2018).
Read-outs that look alike come from different tables or passages of the source.

Experiments:
biotin-GFP = biotin-GFP (Aequorea victoria, UniProt P42212, A206V/E111V/F223Y/F64L/F99S/I128T/I167V/I171V/K158E/K166T/K26E/L221H/M153T/N105K/N149D/N164E/Q80R/S205T/S30R/S65T/T225N/V163A/Y145F/Y39I); conditions: Biotin-GFP
Description: After incubation at the indicated temperature (23° C., 37° C., or 45° C.) for varying time points (between 0 to 10 h), protein-conjugate mixtures were loaded onto a 15% native polyacrylamide gel. […] Data as ln(fraction bound) versus time and fitting the data to a straight line by linear regression.

biotin-DNA = assay: Gel-based off-rate measurement against biotin-DNA-fluorescein; assay type: binding; conditions: 10 h
[1] = target: Rhizobium etli rhizavidin variant RAWH (RAWH-His6), E115W/S23H (Rhizobium etli, UniProt Q8KKW2, E135W/S43H); assay: Kd measurement by competition binding for [^3H]biotin against streptavidin, RAWH
Description: (§1) Mixtures were incubated at 37° C. for 20 h to reach equilibration. […] After 1 h incubation at room temperature, the beads were cleared by centrifugation at 13,000 rpm for 1 min. […] Samples were heated to 95° C. for 30 min, and then counted in a liquid scintillation counter. The Kd ratios between competing avidin proteins were calculated with Matlab (Mathworks) using the foregoing formula (Qureshi, M. H. & Wong, S. L. Protein Expr. Purif. 25, 409-415 (2002)).

HeLa cells = assay: Clustering and internalization of biotinylated cell-surface proteins; assay type: cell-based; conditions: Cy5-labeled avidin proteins, 37° C.
Description: Following biotinylation, the cells were washed twice with cold PBS-CM, treated with 100 mM glycine in PBS-CM for blocking, and washed again twice with cold PBS. […] Unbound avidin proteins were removed, and media was replaced with pre-warmed DMEM (37° C.). Cells were incubated for 5, 10, or 30 m at 37° C. Cells were washed, and fixed with 4% formaldehyde in PBS for confocal imaging (ZEISS, LSM510 META). To visualize endosome or lysozome-specific proteins, cells were fixed, permeabilized, and incubated with a primary antibody: anti-Rab11 (a GTPase of recycling endosome, Abcham) or anti-LAM P1 (Lysosomal-associated membrane protein 1, Abcham). Afterward, cells were incubated with a fluorescent secondary antibody (goat anti-rabbit 555, Abcham), and images were acquired with a confocal microscopy (ZEISS, LSM510 META).

[2] = target: Rhizobium etli rhizavidin variant monodin (MA), monomeric, A67D/G71K/A82N/G84Q/S101R/A105K + S23H/Q46E/E115W, SEQ ID NO: 3 (Rhizobium etli, UniProt Q8KKW2, A102N/A125K/A87D/E135W/G104Q/G91K/Q66E/S121R/S43H); assay: [^3H]biotin off-rate assay, monodin; assay type: binding; conditions: free [^3H]biotin, excess cold biotin, 37° C.
Description: [^3H]Biotin Off-Rate Assay
At time-points taken over 5 h at 37° C., 150 μL of aliquots were removed, and added to 600 μL of 0.2 M ZnSO4 (chilled with ice), followed by addition of 600 μL of 0.2 M NaOH. […] Dissociation rates were deduced as discussed above.

[3] = target: Rhizobium etli rhizavidin variant monodin (MA, MA-His6), monomeric, A67D/G71K/A82N/G84Q/S101R/A105K + S23H/Q46E/E115W, SEQ ID NO: 3 (Rhizobium etli, UniProt Q8KKW2, A102N/A125K/A87D/E135W/G104Q/G91K/Q66E/S121R/S43H); assay: Kd measurement by competition binding for [^3H]biotin against RAWH, monodin
Chain of Rhizobium etli rhizavidin variant monodin (MA, MA-His6), monomeric, A67D/G71K/A82N/G84Q/S101R/A105K + S23H/Q46E/E115W, SEQ ID NO: 3 (Q8KKW2 entry or part of it S43H/Q66E/A87D/G91K/A102N/G104Q/S121R/A125K/E135W): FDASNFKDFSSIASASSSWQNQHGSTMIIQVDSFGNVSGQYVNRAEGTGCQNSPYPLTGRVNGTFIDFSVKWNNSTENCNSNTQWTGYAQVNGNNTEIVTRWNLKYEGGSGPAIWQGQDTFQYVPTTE
Description: as §1

Chain of Rhizobium etli rhizavidin variant RAWH (RAWH-His6), E115W/S23H (Q8KKW2 entry or part of it S43H/E135W): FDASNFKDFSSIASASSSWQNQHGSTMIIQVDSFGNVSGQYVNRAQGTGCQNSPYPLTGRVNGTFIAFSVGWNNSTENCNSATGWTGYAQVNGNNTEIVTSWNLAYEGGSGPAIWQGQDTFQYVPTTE
Chain of Rhizobium etli rhizavidin variant monodin (MA), monomeric, A67D/G71K/A82N/G84Q/S101R/A105K + S23H/Q46E/E115W, SEQ ID NO: 3 (Q8KKW2 entry or part of it S43H/Q66E/A87D/G91K/A102N/G104Q/S121R/A125K/E135W): as the sequence (Q8KKW2 entry or part of it S43H/Q66E/A87D/G91K/A102N/G104Q/S121R/A125K/E135W) above

Row | Compound | percentage of dissociated biotin conjugate after 10 h incubation with excess biotin (biotin-GFP; 23° C.) [% for 10 h*] | percentage of dissociated biotin conjugate after 10 h incubation with excess biotin (biotin-GFP; 37° C.) [% for 10 h*] | percentage of dissociated biotin conjugate after 10 h incubation with excess biotin (biotin-DNA; 23° C.) [% for 10 h*] | percentage of dissociated biotin conjugate after 10 h incubation with excess biotin (biotin-DNA; 37° C.) [% for 10 h*] | further results
1 | Neutravidin (NA): tetrameric neutravidin (Pierce) [reference compound] | 6.8 ± 1.6 | 16 ± 3.8 | 11 ± 4.4 | 20 ± 0.2 | percentage of dissociated biotin conjugate after 10 h incubation with excess biotin (biotin-GFP; 45° C.): 32 ± 5.0% for 10 h*; percentage of dissociated biotin conjugate after 10 h incubation with excess biotin (biotin-DNA; 37° C., listed as neutravidin): about 20%
2 | O=C(O)CCCC[C@@H]1SC[C@@H]2NC(=O)N[C@@H]21 [[^3H]biotin] [listing 1 of 2 here] |  |  |  |  | Kd [1]: 6.9 pM
3 | Streptavidin (STA): tetrameric streptavidin, purchased from Abcam [reference compound] | 4.7 ± 0.3 | 22 ± 4.4 | 6.8 ± 1.8 | 17 ± 1 | Dissociation rate (biotin-GFP; 45° C., excess biotin): 1.9 ± 0.2 × 10^−5 s^−1; incubation time after which avidin protein was internalized (HeLa cells): 10 min; percentage of dissociated biotin conjugate after 10 h incubation with excess biotin (biotin-DNA; 37° C., listed as streptavidin): about 20%
4 | O=C(O)CCCC[C@@H]1SC[C@@H]2NC(=O)N[C@@H]21 [[^3H]biotin] [listing 2 of 2 here] |  |  |  |  | off-rate [2]: 1.2±0.3×10^−5 s^−1
5 | O=C(O)CCCC[C@@H]1SC[C@@H]2NC(=O)N[C@@H]21 [biotin] |  |  |  |  | Kd [3]: 31 ± 10 pM
